{
  "source": "patent US20230398111A1",
  "about": "“ORAL FORMULATIONS OF NINTEDANIB AND METHOD OF MANUFACTURING THEREOF” (BDR PHARMACEUTICALS INTERNATIONAL PRIVATE LIMITED, priority 2020, published 2023)",
  "origin": "cited, not measured here",
  "conditions": "neutral conditions / neutral pH",
  "data": [
    {"smiles": "COC(=O)c1ccc2c(c1)NC(=O)/C2=C(\\Nc1ccc(N(C)C(=O)CN2CCN(C)CC2)cc1)c1ccccc1", "note": "[Nintedanib esylate, methyl-2-hydroxy-3-[N-[4-[methyl-[2-(4-methylpiperazin-1-yl)acetyl]amino]phenyl]-C-phenylcarbonimidoyl]-1H-indole-6-carboxylate ethanesulfonic acid]", "values": [
      {"measurement": "solubility", "value": "poor solubility"}
    ]}
  ]
}
